In patent publication US6770122B2, “Copper deposition using copper formate complexes” (E. I. du Pont de Nemours and Company, priority 2001, dated 2004):

Experiments:
[1] = Description: A common technique used in dissolving metal complexes in supercritical carbon dioxide is to add a co-solvent (Cross et al.). The requirements of a co-solvent have been defined (Cross et al.). Methanol and other alcohols are commonly used. […] In these measurements, the complex was dissolved in 0.25-1 mL of methanol or 1-butanol and then shaken with 5-10 mL hexane; solubility was indicated by formation of a homogeneous blue solution. Alcohols such as methanol and 1-butanol are totally miscible with supercritical carbon dioxide at ambient temperatures and high pressure (Cross et al). Between 2 to 5% cosolvent is typically used in order to retain supercritical properties of the solvent at reasonable temperatures and pressures.
[2] = Solubility in hexane, judged by blue colour of the solution; settings: no co-solvent, qualitative
Description: Copper formate complexes were prepared using 1-octyl-2-ethyl-4-methylimidazole and 1-hexyl-2-ethyl-4-methylimidazole as ligands.

CCCCC(CC)Cn1cc(C)nc1CC (centres unmarked) [1-(2-ethylhexyl)-2-ethyl-4-methylimidazole]
solubility in hexane with co-solvent (or supercritical carbon dioxide with co-solvent) [1]: 1-(2-ethylhexyl)-2-ethyl-4-methyl-

CCCCC(CC)Cn1cccn1 (centres unmarked) [1-(2-ethylhexyl)pyrazole]
solubility in hexane with co-solvent (or supercritical carbon dioxide with co-solvent) [1]: 1-(2-ethylhexyl)pyrazole

CC(C)(C)c1ccncc1 [4-t-butylpyridine]
solubility in hexane with co-solvent (or supercritical carbon dioxide with co-solvent) [1]: 4-t-butylpyridine

Cu(1-octyl-4-ethyl-2-methylimidazole)2(HCOO)2H2O
solubility in hexane (blue color of solution) [2]: dissolves in hexane to yield a blue solution | solubility in hexane (blue color of solution) ([2]; listed as Cu(1-octyl-4-ethyl-2-methylimidazole)2(HCOO)2H2O): soluble in hexane
